Measurements taken from patent US20250127913A1, “BIFUNCTIONAL FOLATE RECEPTOR BINDING COMPOUNDS” (LYCIA THERAPEUTICS, INC., priority 2021, published 2025).

Tests used:
FOLR2 = FOLR2 (Homo sapiens (Human), UniProt P14207); assay: SPR binding kinetics of compounds to folate receptor (FOLR2 immobilized on CM5 chip)
Description: A Biacore 8K+ was used to measure the association and dissociation rates of example compounds to FOLR2 (Acro Biosystems, Cat: F02-H5223-100 μg). Briefly, FOLR2 was reconstituted according to the manufacture's instructions to 200 μg/mL. Both the active and reference surfaces of a Cytiva CM5 Series S Sensor Chip were activated with a 1:1 mixture of 400 mM EDC and 100 mM NHS for 420 s at 10 μL/min. 25 μg/mL FOLR2 diluted in Sodium Acetate pH 5.5 was injected on the active channel (Flow Cell 2) for 420 s at 10p/min. Both the reference and active surfaces were then capped with 1M ethanolamine, pH 8.5 for 420 s, achieving an immobilization level of ˜4200 RU. Example compounds were serially diluted 1:1 in running buffer (10 mM HEPES, 150 mM NaCl, 0.05% T20, pH 7.5, 2% DMSO) from 100 nM to 3.125 nM and flowed over the active and reference surfaces for 120 s, and then allowed to dissociate in running buffer for 600 s, at 30 uL/min. The FOLR2 immobilized active surface and the reference surface were regenerated with a 30 s pulse of Sodium Acetate pH 5.5 at 30 μL/min. Sensorgrams were solvent corrected, double-referenced, and the data fitted and analyzed in Biacore Insight Evaluation Software Version 3.0.11.15423.

TNFα trimer = TNFα trimer (Homo sapiens, UniProt P01375); assay: SPR binding kinetics of compounds to TNFα trimer; settings: class symbols
Sequence of TNFα trimer (P01375 77-233 limits assumed): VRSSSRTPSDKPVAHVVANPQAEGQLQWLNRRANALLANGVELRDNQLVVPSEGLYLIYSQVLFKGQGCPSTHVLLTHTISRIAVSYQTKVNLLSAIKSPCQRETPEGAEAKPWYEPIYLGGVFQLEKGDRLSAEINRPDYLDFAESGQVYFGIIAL
Description: Streptavidin 100 μg/mL Streptavidin (Invitrogen Cat #: 434302) diluted in 10 mM sodium acetate, pH 4.5) was immobilized to both the reference and active surfaces as described in Example 51. The surfaces were conditioned with three injections of running Buffer (10 mM HEPES, 150 mMNaCl, 0.05% T20, pH 7.5, 2% DMSO) at a flow rate of 10 μL/min, Contact time: 60 s. Flow rate: 10 μL/min. The active surface was treated with biotinylated linked TNFα trimer 20 μg/mL diluted in running buffer at a flow rate of 5 μL/min contact time: 600 s, yielding a final response of ˜3000 RU. Example compounds were then serially diluted 1:1 in running buffer (10 mM HEPES, 150 mM NaCl, 0.05% T20, pH 7.5, 2% DMSO) from 30 uM to 937.5 nM and flowed over the active and reference surfaces from lowest concentration to greatest concentration in the single-cycle kinetics format, and then allowed to dissociate in running buffer for 7200 s, at 30 μL/min. Sensorgrams were solvent corrected, double-referenced, and the data fitted and analyzed in Biacore Insight Evaluation Software Version 3.0.11.15423.

[1] = test system: TNFα trimer complex to folate receptor (FOLR2); assay: SPR co-engagement of compound-TNFα trimer complex to folate receptor; settings: TNFα + 10 nM compound binding FOLR2
Description: The active (Flow cell 2) surfaces of a Cytiva CM5 Series S Sensor Chip functionalized with FOLR2 as described in Example 58. Example compounds were diluted to 10 nM with 50 and 100 nM TNFα single chain trimer or 150 nM and 300 nM TNFα native monomer in running buffer (10 mM HEPES, 150 mM NaCl, 0.05% T20, pH 7.5, 2% DMSO), allowed to incubate for 5 hours at 25° C. and then flowed over the active and reference surfaces for 110 s, and then allowed to dissociate in running buffer for 600 s, at a flow rate of 30 μL/min. The FOLR2 immobilized active surface and the reference surface were regenerated with a 30 s pulse of 4M MgCl2 at 30 μL/min then allowed to equilibrate 240 s. Sensorgrams were solvent corrected, double-referenced, and the data fitted and analyzed in Biacore Insight Evaluation Software Version 3.0.11.15423.

THP-1 cells = assay: Compound mediated uptake of TNFα-pHrodo in THP-1 cells (flow cytometry); format: cell-based; design: key to Uptake in THP1 cells (run) 2 / Uptake in THP1 cells (run) 3 / Uptake in THP1 cells (run) 4: + = ΔMFI less than that of I-17; ++ = ΔMFI ≈ to that of I-17; +++ = ΔMFI greater than that of I-17; settings: ΔMFI compared with I-17, uptake at 10 μM
Description: THP-1 cells, a monocytic leukemia cell line that endogenously express folate receptor beta, were used as a model system to measure example compound stimulated uptake of in-house produced TNFα conjugated to the pH sensitive fluorescent dye pHrodo green (ThermoFisher Scientific #P35369).
THP-1 cells were maintained in RPMI (Gibco #61870143) with 10% v/v FBS (VWR #89510-188) with 2 mM L-alanyl-L-glutamine dipeptide, 100 units/ml penicillin and 100 μg/ml streptomycin (Gibco #15140148). Cells were pelleted, resuspended in folate-free RPMI (Gibco #27016021) and seeded at 50,000 cells per well of a 96 well plate. Example compound was added to each well as a log 2 dilution series ranging from 20 μM to 125 nM final concentration. Cells were incubated for 24 hrs and washed/resuspended in phosphate buffered saline (pH 7.4) with 1% w/v BSA. Uptake was measured using a Novocyte Advanteon Flow Cytometer (Agilent Technologies) with the […] and FITC detection configuration.

Sequence of FOLR2 (P14207 17-255): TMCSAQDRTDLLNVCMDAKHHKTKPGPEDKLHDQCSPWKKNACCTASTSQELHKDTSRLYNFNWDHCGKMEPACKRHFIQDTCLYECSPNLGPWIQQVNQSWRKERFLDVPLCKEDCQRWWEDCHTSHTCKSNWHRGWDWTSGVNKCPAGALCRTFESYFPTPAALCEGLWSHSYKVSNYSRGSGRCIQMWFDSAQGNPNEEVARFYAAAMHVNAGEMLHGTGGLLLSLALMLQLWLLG

| Structure (SMILES) | Kd (FOLR2) | Kd (TNFα trimer) | co-engagement / complex formation observed on SPR [1] | Uptake in THP1 cells (run) 2 (THP-1 cells) | Uptake in THP1 cells (run) 3 (THP-1 cells) | Uptake in THP1 cells (run) 4 (THP-1 cells) |
| --- | --- | --- | --- | --- | --- | --- |
| Cc1nc2ccc(-c3ccc(N4CCN(CCOCCn5cc(COCCOCCOCCOCCNC(=O)CC[C@H](NC(=O)c6ccc(NCc7cnc8nc(N)nc(O)c8n7)cc6)C(=O)O)nn5)CC4)nc3)cn2c1Cc1ccccc1OC(F)F (racemic) [Compound I-22, rac-(R)-18-(4-(((2-amino-4-hydroxypteridin-6-yl)methyl)amino)benzamido)-1-(1-(2-(2-(4-(5-(3-(2-(difluoromethoxy)benzyl)-2-methylimidazo[1,2-a]pyridin-6-yl)pyridin-2-yl)piperazin-1-yl)ethoxy)ethyl)-1H-1,2,3-triazol-4-yl)-15-oxo-2,5,8,11-tetraoxa-14-azanonadecan-19-oic acid] | 0.3 nM | < 5000 nM | complex formation observed | + | + | + |
| Cc1nc2cc(F)c(-c3cnc(OCCCCCn4cc(CNC(=O)CC[C@H](NC(=O)c5ccc(NCc6cnc7nc(N)nc(O)c7n6)cc5)C(=O)O)nn4)nc3)nc2c(N[C@H](C)c2cc(C#N)ccc2F)c1Cl [Compound I-14, N2-(4-(((2-amino-4-hydroxypteridin-6-yl)methyl)amino)benzoyl)-N5-((1-(5-((5-(7-chloro-8-(((R)-1-(5-cyano-2-fluorophenyl)ethyl)amino)-3-fluoro-6-methyl-1,5-naphthyridin-2-yl)pyrimidin-2-yl)oxy)pentyl)-1H-1,2,3-triazol-4-yl)methyl)-L-glutamine] | 0.2 nM | < 100 nM | complex formation observed | + | ++ | – |
| Cc1nc2cc(F)c(-c3cnc(OCCCCCn4cc(COCCNC(=O)CC[C@H](NC(=O)c5ccc(NCc6cnc7nc(N)nc(O)c7n6)cc5)C(=O)O)nn4)nc3)nc2c(N[C@H](C)c2cc(C#N)ccc2F)c1Cl [Compound I-15, N2-(4-(((2-amino-4-hydroxypteridin-6-yl)methyl)amino)benzoyl)-N5-(2-((1-(5-((5-(7-chloro-8-((I-1-(5-cyano-2-fluorophenyl)ethyl)amino)-3-fluoro-6-methyl-1,5-naphthyridin-2-yl)pyrimidin-2-yl)oxy)pentyl)-1H-1,2,3-triazol 4-yl)methoxy)ethyl)-L-glutamine] | 0.3 nM | < 100 nM | complex formation observed | – | +++ | ++ |
| Cc1nc2cc(F)c(-c3cnc(OCCCCCn4cc(COCCOCCOCCOCCOCCOCCNC(=O)CC[C@H](NC(=O)c5ccc(NCc6cnc7nc(N)nc(O)c7n6)cc5)C(=O)O)nn4)nc3)nc2c(N[C@H](C)c2cc(C#N)ccc2F)c1Cl [Compound I-18, (S)-24-(4-(((2-amino-4-hydroxypteridin-6-yl)methyl)amino)benzamido)-1-(1-(5-((5-(7-chloro-8-((I-1-(5-cyano-2-fluorophenyl)ethyl)amino)-3-fluoro-6-methyl-1,5-naphthyridin-2-yl)pyrimidin-2-yl)oxy)pentyl)-1H-1,2,3-triazol-4-yl)-21-oxo-2,5,8,11,14,17-hexaoxa-20-azapentacosan-25-oic acid] | 0.4 nM | < 100 nM | complex formation observed | +++ | ++ | +++ |
| Cc1nc2cc(F)c(-c3cnc(OCCCCCn4cc(COCCOCCOCCOCCOCCOCCOCCOCCOCCOCCNC(=O)CC[C@H](NC(=O)c5ccc(NCc6cnc7nc(N)nc(O)c7n6)cc5)C(=O)O)nn4)nc3)nc2c(N[C@H](C)c2cc(C#N)ccc2F)c1Cl [Compound I-20, (S)-36-(4-(((2-amino-4-hydroxypteridin-6-yl)methyl)amino)benzamido)-1-(1-(5-((5-(7-chloro-8-(((R)-1-(5-cyano-2-fluorophenyl)ethyl)amino)-3-fluoro-6-methyl-1,5-naphthyridin-2-yl)pyrimidin-2-yl)oxy)pentyl)-1H-1,2,3-triazol-4-yl)-33-oxo-2,5,8,11,14,17,20,23,26,29-decaoxa-32-azaheptatriacontan-37-oic acid] | 0.2 nM | < 1000 nM | complex formation observed | +++ | + | ++ |
